Key:
TBK1 = TBK1 (Homo sapiens (Human), UniProt Q9UHD2); assay: TBK Biochemical Assay
Protocol: Example 106: TBK Biochemical Assay Test compounds were transferred into Labcyte polypropylene 384 well plates ([…]-25) and diluted to 3 mM using DMSO. 3 mM test compounds were dispensed using Labcyte ECHO dose response module into Greiner 784075 plates (columns 3-12 and 13-22, 10 point 1:4) so that high concentration was 30 uM final. 100 uM of a reference compound (1 uM final high concentration). Backfilling was performed if necessary so that all wells contain 1% DMSO final: add 75 nl DMSO/well into columns 1, 2 and 24 using Labcyte Echo. add 75 nl 1.0 mM staurosporine/well into column 23 using Labcyte Echo (10 uM final) add 4.5 ul enzyme/well using multidrop dispenser add 3 ul substrate/well using multidrop dispenser incubate at 25° C. in Heidolph incubator for 90 min. add 7.5 ul 2× stop buffer using multidrop dispenser read on labchip ez reader II using TBK1.job Raw data files were opened in the Caliper LabChip Reviewer program (Version 3.0.265.0 SP2) and peak assignments were adjusted to reflect “substrate first” with the software's post-run analysis options. A spline-fit baseline was applied using the software's analysis algorithm.

IKKe = IKKe (Homo sapiens (Human), UniProt Q14164); assay: IKKe Biochemical Assay
Protocol: IKKe Biochemical Assay Test compounds were transferred into Labcyte polypropylene 384 well plates ([…]-25) and diluted to 3 mM using DMSO. 3 mM test compounds were dispensed using Labcyte ECHO dose response module into Greiner 784075 plates (columns 3-12 and 13-22, 10 point 1:4) so that high concentration was 30 uM final. 100 uM of a reference compound (1 uM final high concentration). Backfilling was performed if necessary so that all wells contain 1% DMSO final: add 75 nl DMSO/well into columns 1, 2 and 24 using Labcyte Echo. add 75 nl 1.0 mM staurosporine/well into column 23 using Labcyte Echo (10 uM final) add 4.5 ul enzyme/well using multidrop dispenser add 3 ul substrate/well using multidrop dispenser incubate at 25° C. for 90 min. add 7.5 ul 2× stop buffer read on labchip ez reader II using IKKε. job Raw data files were opened in the Caliper LabChip Reviewer program (Version 3.0.265.0 SP2) and peak assignments were adjusted to reflect “substrate first” with the software's post-run analysis options. A spline-fit baseline was applied using the software's analysis algorithm.

IKKe, sequence (Q14164 whole entry, species assumed): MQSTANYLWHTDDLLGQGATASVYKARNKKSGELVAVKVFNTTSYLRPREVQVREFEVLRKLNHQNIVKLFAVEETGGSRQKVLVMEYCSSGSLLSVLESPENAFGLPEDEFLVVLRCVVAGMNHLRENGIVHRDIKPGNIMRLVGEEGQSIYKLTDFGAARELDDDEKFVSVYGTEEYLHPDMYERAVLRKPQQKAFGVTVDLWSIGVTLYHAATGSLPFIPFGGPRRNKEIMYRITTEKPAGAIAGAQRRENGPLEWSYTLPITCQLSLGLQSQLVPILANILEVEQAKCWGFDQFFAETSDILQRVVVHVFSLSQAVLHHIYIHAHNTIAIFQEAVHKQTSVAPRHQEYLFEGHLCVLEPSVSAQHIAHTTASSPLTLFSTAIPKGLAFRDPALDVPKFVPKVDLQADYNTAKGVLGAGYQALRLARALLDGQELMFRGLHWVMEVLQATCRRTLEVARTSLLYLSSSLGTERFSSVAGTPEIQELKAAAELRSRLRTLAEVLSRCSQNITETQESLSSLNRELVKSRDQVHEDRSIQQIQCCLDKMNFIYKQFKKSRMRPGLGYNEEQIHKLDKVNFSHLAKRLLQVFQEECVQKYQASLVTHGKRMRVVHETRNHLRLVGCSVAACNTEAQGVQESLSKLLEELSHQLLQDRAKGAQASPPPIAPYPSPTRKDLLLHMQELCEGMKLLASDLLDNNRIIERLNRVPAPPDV
TBK1, sequence (Q9UHD2 whole entry, species assumed): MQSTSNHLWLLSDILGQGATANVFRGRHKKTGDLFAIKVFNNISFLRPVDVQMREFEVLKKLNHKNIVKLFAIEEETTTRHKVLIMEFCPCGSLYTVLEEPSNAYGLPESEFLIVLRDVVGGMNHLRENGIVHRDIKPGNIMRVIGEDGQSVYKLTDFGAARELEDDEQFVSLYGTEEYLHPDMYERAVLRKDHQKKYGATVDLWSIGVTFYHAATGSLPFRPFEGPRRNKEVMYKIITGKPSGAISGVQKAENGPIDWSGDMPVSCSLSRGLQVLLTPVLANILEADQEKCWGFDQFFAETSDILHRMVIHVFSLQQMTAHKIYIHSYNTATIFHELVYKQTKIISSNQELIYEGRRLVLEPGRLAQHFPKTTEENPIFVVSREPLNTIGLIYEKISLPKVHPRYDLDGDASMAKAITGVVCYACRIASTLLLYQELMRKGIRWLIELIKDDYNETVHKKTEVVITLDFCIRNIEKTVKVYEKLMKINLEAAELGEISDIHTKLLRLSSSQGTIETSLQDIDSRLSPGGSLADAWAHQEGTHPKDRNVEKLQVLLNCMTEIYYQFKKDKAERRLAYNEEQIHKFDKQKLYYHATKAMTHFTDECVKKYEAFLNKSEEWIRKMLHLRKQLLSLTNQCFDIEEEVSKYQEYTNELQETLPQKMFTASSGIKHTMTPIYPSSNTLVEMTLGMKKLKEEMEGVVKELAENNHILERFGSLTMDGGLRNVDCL

Structure (SMILES) | IC50 (TBK1) [nM] | IC50 (IKKe) [nM]
COc1nc(Nc2cc(-c3ccc(OC4CCOCC4)c(C#N)n3)ncn2)ccc1C1CCN(C)CC1 [Example 25, 6-(6-[[6-methoxy-5-(1-methylpiperidin-4-yl)pyridin-2-yl]amino]pyrimidin-4-yl)-3-(oxan-4-yloxy)pyridine-2-carbonitrile] | 1000 to 5000 | 1000 to 5000
COc1nc(Nc2cc(-c3cc(C#N)c(OC4CCOCC4)cn3)ncn2)ccc1C(=O)N(C)C [Example 26, 6-([6-[4-cyano-5-(oxan-4-yloxy)pyridin-2-yl]pyrimidin-4-yl]amino)-2-methoxy-N,N-dimethylpyridine-3-carboxamide] | < 100 | < 100
COc1nc(Nc2cc(-c3ccc(OC4CCOCC4)c(C#N)c3)ncn2)ccc1C1CCN(CC(F)(F)F)CC1 [Example 27, 5-[6-([6-methoxy-5-[1-(2,2,2-trifluoroethyl)piperidin-4-yl]pyridin-2-yl]amino)pyrimidin-4-yl]-2-(oxan-4-yloxy)benzonitrile] | 100 to 1000 | 100 to 1000
COc1nc(Nc2cc(-c3ccc(OC4CCOCC4)c(C#N)c3)ncn2)ccc1C1CCN(CC(F)F)CC1 [Example 28, 5-[6-([5-[1-(2,2-difluoroethyl)piperidin-4-yl]-6-methoxypyridin-2-yl]amino)pyrimidin-4-yl]-2-(oxan-4-yloxy)benzonitrile] | < 100 | < 100
CN1CCN(c2ccc(Nc3cc(-c4ccc(OC5CCOCC5)c(C#N)c4)ncn3)nc2)CC1 [Example 29, 5-(6-[[5-(4-methylpiperazin-1-yl)pyridin-2-yl]amino]pyrimidin-4-yl)-2-(oxan-4-yloxy)benzonitrile] | < 100 | < 100
CN(C)C(=O)c1ccc(Nc2cc(-c3ccc(OC4CCOCC4)c(C#N)c3)ncn2)nc1 [Example 30, 6-([6-[3-cyano-4-(oxan-4-yloxy)phenyl]pyrimidin-4-yl]amino)-N,N-dimethylpyridine-3-carboxamide] | < 100 | < 100
COc1cc(Nc2cc(-c3ccc(OC4CCOCC4)c(C#N)c3)ncn2)ncc1C(=O)N(C)C [Example 31, 6-([6-[3-cyano-4-(oxan-4-yloxy)phenyl]pyrimidin-4-yl]amino)-4-methoxy-N,N-dimethylpyridine-3-carboxamide] | < 100 | < 100
COc1cc(Nc2cc(-c3ccc(OC4CCOCC4)c(C#N)c3)ncn2)cnc1C(=O)N(C)C [Example 32, 5-([6-[3-cyano-4-(oxan-4-yloxy)phenyl]pyrimidin-4-yl]amino)-3-methoxy-N,N-dimethylpyridine-2-carboxamide] | 1000 to 5000 | 1000 to 5000
COc1cc(Nc2cc(-c3ccc(OC4CCOCC4)c(C#N)c3)ncn2)ncc1N1CCN(C)CC1 [Example 33, 5-(6-[[4-methoxy-5-(4-methylpiperazin-1-yl)pyridin-2-yl]amino]pyrimidin-4-yl)-2-(oxan-4-yloxy)benzonitrile] | < 100 | < 100
COc1cc(Nc2cc(-c3ccc(OC4CCOCC4)c(C#N)c3)ncn2)cnc1N1CCN(C)CC1 [Example 34, 5-(6-[[5-methoxy-6-(4-methylpiperazin-1-yl)pyridin-3-yl]amino]pyrimidin-4-yl)-2-(oxan-4-yloxy)benzonitrile] | 100 to 1000 | 100 to 1000
COc1cc(Nc2cc(-c3ccc(OC4CCOCC4)c(C#N)c3)ncn2)cnc1C1CCN(C)CC1 [Example 35, 5-(6-[[5-methoxy-6-(1-methylpiperidin-4-yl)pyridin-3-yl]amino]pyrimidin-4-yl)-2-(oxan-4-yloxy)benzonitrile] | 100 to 1000 | 100 to 1000
COc1cc(Nc2cc(-c3ccc(OC4CCOCC4)c(C#N)c3)ncn2)ncc1C1CCN(C)CC1 [Example 36, 5-(6-[[4-methoxy-5-(1-methylpiperidin-4-yl)pyridin-2-yl]amino]pyrimidin-4-yl)-2-(oxan-4-yloxy)benzonitrile] | < 100 | < 100

— US11440899B2, “Pyrimidine TBK/IKKe inhibitor compounds and uses thereof” (Merck Patent GmbH, priority 2017, dated 2022)
